From patent US6410564B1, “Naphthyl compounds, intermediates, processes, compositions, and methods” (Eli Lilly and Company, priority 1994, dated 2002)
Like-named read-outs stand apart in the source and are kept apart here.

Assays:
[1] = tested on: ovariectomized (OVX) female Sprague Dawley rats; conditions: rat, in vivo, po, 4 days
Description: In the examples illustrating the methods, a post-menopausal model was used in which effects of different treatments upon circulating lipids were determined.
(§1) Seventy-five day old female Sprague Dawley rats (weight range of 200 to 225 g) were obtained from Charles River Laboratories (Portage, Mich.). The animals were either bilaterally ovariectomized (OVX) or exposed to a Sham surgical procedure at Charles River Laboratories, and then shipped after one week. Upon arrival, they were housed in metal hanging cages in groups of 3 or 4 per cage and had ad libitum access to food (calcium content approximately 0.5%) and water for one week. Room temperature was maintained at 22.2°±1.7° C. with a minimum relative humidity of 40%. The photoperiod in the room was 12 hours light and 12 hours dark.
(§2) Dosing Regimen Tissue Collection. After a one week acclimation period (therefore, two weeks post-OVX) daily dosing with test compound was initiated. 17α-ethynyl estradiol or the test compound were given orally, unless otherwise stated, as a suspension in 1% carboxymethylcellulose or dissolved in 20% cyclodextrin. Animals were dosed daily for 4 days. Following the dosing regimen, animals were weighed and anesthetized with a ketamine: Xylazie (2:1, V:V) mixture and a blood sample was collected by cardiac puncture. The animals were then sacrificed by asphyxiation with CO2, the uterus was removed through a midline incision, and a wet uterine weight was determined.
(§3) Data presented in Table 1 below show comparative results among ovariectomized rats, rats treated with 17α-ethynyl estradiol (EE2; an orally available form of estrogen), and rats treated with certain compounds of the present invention. […] This uterine response to estrogen is well recognized in the art.
(§4) The data presented in the Tables 1 below reflects the response of 5 to 6 rats per treatment.

[2] = tested on: ovariectomized (OVX) female Sprague Dawley rats; assay: Serum cholesterol in OVX rats, 4-day dosing; assay type: in vivo, rat
Text: as §1, §2
Cholesterol Analysis. Blood samples were allowed to clot at room temperature for 2 hours, and serum was obtained following centrifugation for 10 minutes at 3000 rpm. Serum cholesterol was determined using a Boehringer Mannheim Diagnostics high performance cholesterol assay. Briefly the cholesterol was oxidized to cholest-4-en-3-one and hydrogen peroxide. The hydrogen peroxide was then reacted with phenol and 4-aminophenazone in the pressure of peroxidase to produce a p-quinone imine dye, which was read spectrophotemetrically at 500 nm. Cholesterol concentration was then calculated against a standard curve. The entire assay was automated using a Biomek Automated Workstation.
as §3, §4

[3] = tested on: Uterine Eosinophil Peroxidase (EPO); conditions: rat, in vivo; for Uterine EPO (V. max): po
Text: as §1, §2
Uterine Eosinophil Peroxidase (EPO) Assay. Uteri were kept at 4° C. until time of enzymatic analysis. The uteri were then homogenized in 50 volumes of 50 mM Tris Buffer (pH −8.0) containing 0.005% Triton X-100. Upon addition of 0.01% hydrogen peroxide and 10 mM O-phenylenediamine (final concentrations) in Tris buffer, increase in absorbance was monitored for one minute at 450 nm. The presence of eosonophils in the uterus is an indication of estrogenic activity of a compound. The maximal velocity of a 15 second interval was determined over the initial, linear portion of the reaction curve.
As is expressed in the below data, estrogenicity also was assessed by evaluating the adverse response to eosinophil infiltration into the uterus.
as §4

[4] = tested on: ovariectomized (OVX) female Sprague Dawley rats; assay: Osteoporosis Test Procedure: distal femur metaphysis X-ray image analysis, OVX rats, 35 days; assay type: in vivo, rat; conditions: for Distal Femur Metaphysis (X-ray Image Analysis-Gray Score): 0.1 mg/kg, mean ± SEM
Text: as §1
Following the General Preparation Procedure, infra, the rats were treated daily for 35 days (6 rats per treatment group) and sacrificed by carbon dioxide asphyxiation on the 36th day. The 35 day time period was sufficient to allow maximal reduction in bone density, measured as described herein. At the time of sacrifice, the uteri were removed, dissected free of extraneous tissue, and the fluid contents were expelled before determination of wet weight in order to confirm estrogen deficiency associated with complete ovariectomy. […] The uteri were then placed in 10% neutral buffered formalin to allow for subsequent histological analysis.
The right femurs were excised and digitilized x-rays generated and analyzed by an image analysis program (NIH image) at the distal metaphysis. The proximal aspect of the tibiae from these animals were also scanned by quantitative computed tomography.
In accordance with the above procedures, compounds of the present invention and ethynyl estradiol (EE2) in 20% hydroxypropyl β-cyclodextrin were orally administered to test animals. Distal femur metaphysis data presented in Tables 2 and 3 below are the results of formula I compound treatments compared to intact and ovariectomized test animals. Results are reported as the mean ± the standard error of the mean.

[5] = Rattus norvegicus, po, 96 h, oral daily for 4 days, dose 0.1 mg/kg, read-out: Serum Cholesterol (% decrease vs. OVX)
[6] = Rattus norvegicus, po, 96 h, oral daily for 4 days, read-out: Serum Cholesterol (% decrease vs. OVX)
[7] = female, Sprague Dawley, 0.1 mg/kg, 4 days
[8] = female, Sprague Dawley, 1 mg/kg, 4 days
[9] = female, Sprague Dawley, 10 mg/kg, 4 days

Structure (SMILES)	Uterine Weight (% increase vs. OVX) ([1]; 0.1 mg/kg) [%]	Uterine Weight (% increase vs. OVX) ([1]; 1 mg/kg) [%]	Uterine Weight (% increase vs. OVX) ([1]; 10 mg/kg) [%]	inhibition in vivo at 0.1 mg/kg [2, 5] [%]	inhibition in vivo at 1 mg/kg [2, 6] [%]	inhibition in vivo at 10 mg/kg [2, 6] [%]	Uterine EPO (V. max) [3, 7]	Uterine EPO (V. max) [3, 8]	Uterine EPO (V. max) [3, 9]	Uterine Weight (% increase vs. OVX) ([1]; 0.01 mg/kg) [%]	inhibition in vivo at 0.01 mg/kg ([2]; Rattus norvegicus, po, 96 h, oral daily for 4 days, dose 0.01 mg/kg, read-out: Serum Cholesterol (% decrease vs. OVX)) [%]	Uterine EPO (V. max) ([3]; female, Sprague Dawley, 0.01 mg/kg, 4 days)	Serum Cholesterol (% decrease vs. OVX) ([2]; oral daily for 4 days, dose 0.1 mg/kg) [%]	serum cholesterol compared to ovariectomized control animals (in words) ([2]; oral, 4 days, EE2 at 0.1 mg/kg/day)	eosinophil infiltration into the uterus (number of eosinophils in the stromal layer, in words) [3]	Uterine EPO (V. max) ([3]; 0.1 mg/kg)	Distal Femur Metaphysis (X-ray Image Analysis-Gray Score) ([4]; Table 2, oral daily 35 days in 20% cyclodextrin, OVX control 5.5 ± 0.6, Sham 30.5 ± 4.3)	Distal Femur Metaphysis (X-ray Image Analysis-Gray Score) ([4]; Table 3, oral daily 35 days in 20% cyclodextrin, OVX control 7.2 ± 2.2, Sham 44.7 ± 6.4)	bone loss / femur density after ovariectomy (in words) ([4]; oral, 35 days)
CC1(C)CCN(CCOc2ccc(Cc3c(-c4ccc(O)cc4)ccc4cc(O)ccc34)cc2)C1 [Example 33, [2-(4-Hydroxyphenyl)-6-hydroxynaphthalen-1-yl][4-[2-(1-(3,3-dimethyl)pyrrolidinyl)ethoxy]phenyl]methane]	40.8	79.0	63.0	25.2	41.1	52.8	12.9	55.2	73.5										
CC(C)(C)C(=O)Oc1ccc(-c2ccc3cc(OC(=O)C(C)(C)C)ccc3c2Cc2ccc(OCCN3CCCCC3)cc2)cc1 [Example 4, [2-(4-Pivaloyloxyphenyl)-6-pivaloyloxynaphthalen-1-yl][4-[2-(1-piperidinyl)ethoxy]phenyl]methane]	52.1	22.8	75.2	21.2	37.2	20.8	3.6	2.9	3.4										
COc1ccc(-c2ccc3ccccc3c2Cc2ccc(OCCN3CCCCC3)cc2)cc1.Cl [Example 15, [2-(4-Methoxyphenyl)-naphthalen-1-yl][4-[2-(1-piperdinyl)ethoxy]phenyl]methane hydrochloride]	41.6	21.2	53.7	53.4	66	55.4	7.0	5.2	5.5	29.3	12.4	4.6							
C#C[C@]1(O)CC[C@H]2[C@@H]3CCc4cc(O)ccc4[C@H]3CC[C@@]21C [EE2, 17α-ethynyl estradiol, reference compound]													81.4	caused a decrease in serum cholesterol	substantial, expected increase in eosinophil infiltration	116.4	32.8 ± 7.9	44.4 ± 4.8	prevented this loss
Oc1ccc(-c2ccc3cc(O)ccc3c2Cc2ccc(OCCN3CCCC3)cc2)cc1 [Example 19]	−12.4	1.0	7.1	4.5	19.7	40.9	0.9	5.4	4.5										
CCCCS(=O)(=O)Oc1ccc(-c2ccc3cc(OS(=O)(=O)CCCC)ccc3c2Cc2ccc(OCCN3CCCCC3)cc2)cc1 [Example 5, [2-(4-n-Butylsulfonyloxyphenyl)-6-n-butylsulfonyloxynaphthalen-1-yl][4-[2-(1-piperidinyl)ethoxy]phenyl]methane]	43.2	16.0	25.3	6	62	46.2	3.4	4.3	2.6										
Oc1ccc(-c2ccc3cc(O)ccc3c2Cc2ccc(OCCN3CCOCC3)cc2)cc1 [Example 32]	50.5	55.4	69.7	57.9	60.3	65.7	9.3	39.3	34.8										
Oc1ccc2c(Cc3ccc(OCCN4CCCC4)cc3)c(-c3ccccc3)ccc2c1 [Example 12]	26.3	18.6	25.1	46.3	49.9	50.1	12.0	4.8	4.5										
COc1ccc(-c2ccc3cc(OC)ccc3c2Cc2ccc(OCCN3CCCCCC3)cc2)cc1.Cl [Example 26, [2-(4-Methoxyphenyl)-6-methoxynaphthalen-1-yl][4-[2-(1-hexamethyleneiminyl)ethoxy]phenyl]methane hydrochloride]				45.1	55.5	60.6													
CCN(CC)CCOc1ccc(Cc2c(-c3ccc(OC)cc3)ccc3cc(OC)ccc23)cc1.Cl [Example 22, [2-(4-Methoxyphenyl)-6-methoxynaphthalen-1-yl][4-[2-(1-N,N-diethylamino)ethoxy]phenyl]methane hydrochloride]	83.9	87.5	89.3	72	60.5	68.7	45.0	41.1	46.2										
Oc1ccc2c(Cc3ccc(OCCN4CCCCC4)cc3)c(-c3ccccc3)ccc2c1 [Example 11, [2-Phenyl-6-hydroxynaphthalen-1-yl][4-[2-(1-piperdinyl)ethoxy]phenyl]methane]	48.1	47.4	14.4	60.2	73.5	72.4	4.8	3.9	3.9										
